Experimental findings from patent publication US6805880B1, “Pharmaceutical delivery system for vitamin C and vitamin E and use of a combination of vitamin C and E for preventing or treating conditions involving oxidative stress” (Ferrosan A/S, priority 1999, dated 2004) are described below.

Like-named read-outs stand apart in the source and are kept apart here.

Series [1] concerns common carotid artery intima-media thickness. Kind of series: ASAP study: progression of common carotid atherosclerosis (slope of ultrasonographic mean CCA-IMT). Type of series: in vivo, human. The conditions noted are these: for mean adjusted 3-year change of the mean carotid artery intima-media thickness (supplement: Yes): multivariate general linear model; for OR of atherosclerotic progression: double placebo as reference; for average unadjusted increase (slope) of the mean CCA-IMT: 3 years; for treatment effect on the proportion with progression: compared with placebo. The procedure: All subjects gave a written informed consent.
The subjects came to baseline visits and were randomised. Follow-up visits were 6, 12, 18, 24, 30 and 36 months later. Supplements were given, returned tablets were counted and ultrasonographic assessment of common carotid artery (CCA) intima-media thickness (IMT) was carried out at all these seven visits.
Equipment: Two identical Biosound Phase 2 systems were used (Biosound, Indianapolis, Ind., USA) equipped with a 8-10 MHz annular array transducer, with a measurement precision of 0.03 mm (41). The scannings were videotaped with PAL S-VHS Panasonic AG 7330E VCR.
Scanning (imaging) procedure and videorecording: The ultrasonographic scanning of the common carotid arteries (CCA), the carotid bulbs and the proximal internal carotid artery (ICA) was performed after a supine rest of 10 minutes, the subject in the supine position. […] The scanning was started with a diagnostic examination of entire accessible carotid tree, to find the most severe lesions. Secondly, the site of the greatest IMT at baseline in the CCA far wall was located and scanned thoroughly. This area was scanned from three angles: anterolateral, lateral and posterolateral.
Measurement from videotapes: All IMT measurements (both baseline and follow-up) from videotapes were made at the same site and angle at all examinations of each subject, which was the site with the greatest IMT (in any angle) which was clearly visible at baseline in the far wall of in CCA below the bulb. At this location IMT was measured in diastole for a length of 10 mm (or shorter, if not visible) in one angle for the far wall. Most often this was the distal centimeter of CCA. All IMT measurements were carried out after the 36-month examination.
Ultrasound image analysis: Computer analysis of ultrasound images to measure IMT was performed with a reading station equipped with Data Translation DT 2861 video frame grabber interfaced to a Panasonic AG 7355 VCR. The Prosound software, utilising automated boundary detection, was used. IMT was determined as the average difference at on the average 100 points between intima/lumen and media/adventitia interface (42).
Construction of the main outcome variable: Atherosclerotic progression was defined a priori as the linear regression slope of the mean common carotid IMT over six or seven points of follow-up time (0, 6, 12, 18, 24, 30 and 36 months). For 34 subjects, one follow-up was missing. First, the mean CCA-IMT from the right and the left side was averaged, and then the slope was computed across time-specific means.
All study participants for whom the main outcome variable was available, were included in the statistical analysis. Analyses were according to the intention-to-treat principle. As the subjects were randomised separately in four strata (smoking men, non-smoking men, smoking women, non-smoking women), this stratification was maintained also in the statistical analysis. As the a priori power calculations were based on stratified analysis in men and women, the primary statistical analysis was done in these two strata (Table 6).
To test the consistency of results, the outcome variable, the slope of the mean CCA-IMT over all available follow-up assessments, was used both as a continuous variable in general linear models and as a dichotomous variable in logistic models. The cut-off for the dichotomisation was the median among all 225 men. […] Odds ratios were estimated as antilogarithms of coefficients and their confidence intervals (Cl) based on normality assumption of SPSS 8.0 for Windows.
Three dummy variables were constructed to indicate whether the participant was randomised to receive only vitamin E, only vitamin C or both vitamins, and these were entered jointly in logistic models. The comparisons in the linear models were between each treatment group and all other groups. […]

How the values of series [2] were obtained:
(§1) The study consisted of 8-week dietary counseling and placebo lead-in phase and a 3-year double-masked phase, for which the subjects were randomly allocated to either (i) […] of d-α-tocopheryl acetate twice daily (272 IU of vitamin E a day), ii) 250 mg slow-release ascorbic acid twice daily, (iii) both d-α-tocopheryl acetate and ascorbic acid in a single tablet, or (iv) placebo only. After the double-blind 3-year period, the study is continuing for another three years as an open study. The doses were chosen on the basis of pilot and kinetic studies (13, 15). The subjects were randomised separately in four strata of approximately equal size: (1) smoking (^35 cigarettes/day) men, (2) nonsmoking men, (3) smoking postmenopausal women, and (4) nonsmoking postmenopausal women. All subjects gave a written informed consent.

For series [3] the following is noted: in vivo. The procedure: The inventors conducted a controlled trial with a formulation including both slow release vitamin C and conventional release vitamin E (250 mg AA and 91 mg α-tocopherol). 520 men and women, smokers and non-smokers, were randomised to vitamin C slow release, vitamin E, a formulation with vitamin E and slow release vitamin C, or placebo (Table 4).
In a double-masked 2×2 factorial trial, 520 smoking and non-smoking men and postmenopausal women aged 45-69 years with serum cholesterol ^35.0 […] were randomised in these four strata to receive either 182 mg of d-α-tocopheryl acetate, 500 mg of slow-release vitamin C daily, both or placebo for three years. Atherosclerotic progression was defined as linear regression slope of the mean ultrasonographically assessed common carotid intima-media thickness (IMT) over time.
as §1
Ascorbic acid was stabilised in heparin plasma with metaphosphoric acid immediately after plasma separation, and frozen at −80° C. Combined ascorbic acid and dehydroascorbic acid were determined with an HPLC method (39). Heparin plasma for α-tocopherol was extracted with ethanol and hexane and measured by a reversed phase HPLC method (15). Cholesterol and triglycerides were determined with enzymatic […] methods (30). Serum LDL cholesterol was measured based on precipitation using polyvinyl sulfate and HDL cholesterol after precipitation with magnesium chloride (30). Plasma fibrinogen concentration was determined with a clotting method (30), plasma homocysteine with an HPLC method (44), and serum ferritin by an immunoradiometric assay (Bio Rad, Quantimune, Hercules, Calif.). Dietary intake of foods and nutrients was assessed at baseline by 4-day instructed food recording. Physical activity was assessed by 12-month checked questionaire (43). Blood pressure was measured manually in sitting position after a rest of 10 minutes, three measurements at 3 minutes' intervals.

[4] abbreviates: men (n = 225), multivariate logistic model.
Setting [5] is: women (n = 233), multivariate logistic model.
[6] abbreviates: female, human, in vivo, 3 years.

For `O=C1O[C@H]([C@@H](O)CO)C(O)=C1O` [Vitamin C, ascorbic acid], the “mean adjusted 3-year change of the mean carotid artery intima-media thickness (supplement: Yes)” value worked out at 0.0119 mm/year in series [1] (men (n = 225)) and 0.0174 mm/year in series [1] (women (n = 233)). For the same compound, the “OR of atherosclerotic progression” value in series [1] (setting [4]) is recorded as 0.44; in series [1] (non-smoking men (n = 125)), 0.30; in series [1] (non-smoking women (n = 123)), 0.99; in series [1] (smoking men (n = 100)), 0.45; in series [1] (smoking women (n = 110)), 0.69; in series [1] (setting [5]), 1.08. The “average unadjusted increase (slope) of the mean CCA-IMT” value in series [1] (men, placebo 0.020) is 0.017 mm/year; in series [1] (women, placebo 0.016) it was 0.017 mm/year. The “treatment effect on the proportion with progression” value in series [1] (men) is “non-significant”. Also, the “effect on atherosclerotic progression” value in series [1] (smoking men) was “nonsignificant trend towards protection”. Besides, the “safety of the supplements” value in series [2] (3 years) is “safe”. Moreover, the “drop-outs: Adverse event” value in series [2] (setting [6]) worked out at 2; in series [2] (male, human, in vivo, 3 years), 2. The “drop-outs: Severe adverse event” value in series [2] (setting [6]) was determined as 1; in series [2] (male, human, in vivo, 3 years), 1. For the same compound, the “drop-outs: Death” value in series [2] (men, number of subjects) was 1; in series [2] (men, number of subjects, listed as vitamin C), “One”; in series [2] (women, number of subjects) it was 0. The “change of plasma α-tocopherol (vitamin E in plasma)” value in series [3] (female, human) worked out at 4.0%; in series [3] (male, human) it was 5.1%. In addition, the “mean plasma α-tocopherol concentration, after supplementation” value in series [3] (male, human) came to 33.9 µmol/L. The “mean plasma α-tocopherol concentration, initial value” in series [3] (male, human) came to 32.3 µmol/L.

As for `CC(=O)Oc1c(C)c(C)c2c(c1C)CC[C@@](C)(CCC[C@H](C)CCC[C@H](C)CCCC(C)C)O2` [Vitamin E, d-α-tocopheryl acetate], the “mean adjusted 3-year change of the mean carotid artery intima-media thickness (supplement: Yes)” value in series [1] (men (n = 225)) was 0.0118 mm/year; in series [1] (women (n = 233)), 0.0165 mm/year. Further, the “OR of atherosclerotic progression” value came out at 0.56 in series [1] (setting [4]); 1.07 in series [1] (non-smoking men (n = 125)); 1.13 in series [1] (non-smoking women (n = 123)); 0.21 in series [1] (smoking men (n = 100)); 0.76 in series [1] (smoking women (n = 110)); 1.05 in series [1] (setting [5]). In addition, the “average unadjusted increase (slope) of the mean CCA-IMT” value was determined as 0.018 mm/year in series [1] (men, placebo 0.020) and 0.015 mm/year in series [1] (women, placebo 0.016). Besides, in series [1] (men), the “treatment effect on the proportion with progression” value was “non-significant”. The “safety of the supplements” value in series [2] (3 years) is “safe”. Besides, the “drop-outs: Adverse event” value in series [2] (men, number of subjects) amounted to 1; in series [2] (women, number of subjects), 3. Moreover, the “drop-outs: Death” value is reported as 3 in series [2] (men, number of subjects); “three” in series [2] (men, number of subjects, listed as vitamin); 0 in series [2] (women, number of subjects). The “drop-outs: Severe adverse event” value in series [2] (men, number of subjects) was 1; in series [2] (women, number of subjects), 2. The “mean plasma α-tocopherol concentration, after supplementation” value in series [3] was found to be 60.1 µmol/L. The “mean plasma α-tocopherol concentration, initial value” in series [3] is 31.7 µmol/L.
